From US20060247244A1, “Quinoxalinones and their use especially in the treatment of cardiovascular diseases” (BAYER HEALTHCARE AG, priority 2002, published 2006) come the findings set out here.

This assay deals with T1, human M2 acetylcholine receptor (M2AChR) (Homo sapiens, UniProt P08172).
T1 construct: expressed in transfected cells; host or cells: CHO K1 (Chinese hamster ovary) cells constitutively expressing mitochondrially targeted aequorin and stably transfected with Galpha16
T1 sequence (P08172 1-466): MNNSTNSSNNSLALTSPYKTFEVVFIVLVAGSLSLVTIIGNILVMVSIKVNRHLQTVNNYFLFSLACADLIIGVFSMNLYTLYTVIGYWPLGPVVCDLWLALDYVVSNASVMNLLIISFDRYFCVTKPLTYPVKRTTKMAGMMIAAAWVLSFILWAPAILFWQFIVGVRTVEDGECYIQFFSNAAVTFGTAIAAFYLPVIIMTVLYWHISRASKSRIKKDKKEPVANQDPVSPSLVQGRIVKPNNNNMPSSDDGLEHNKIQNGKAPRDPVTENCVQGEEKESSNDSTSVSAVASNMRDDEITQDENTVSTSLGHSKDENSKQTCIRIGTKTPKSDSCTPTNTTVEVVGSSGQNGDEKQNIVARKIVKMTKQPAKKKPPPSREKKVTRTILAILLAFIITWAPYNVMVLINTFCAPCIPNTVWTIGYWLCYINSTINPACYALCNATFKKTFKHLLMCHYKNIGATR
Briefly: Cellular functional in vitro test (aequorin luminescence in recombinant CHO K1 cells). Type of assay: cell-based. The note with it: agonist activity; CHO K1 cells expressing human M2AChR, aequorin and Gα16; luminescence readout. An excerpt: A recombinant cell line was used to identify agonists of the human M2 acetylcholine receptor (M2A ChR) and to quantify the activity of the substances described herein. The cell is originally derived from a hamster ovary epithelial cell (Chinese Hamster Ovary, CHO K1, ATCC: American Type Culture Collection, Manassas, Va. 20108, USA). The test cell line constitutively expresses a modified form of the calcium-sensitive photoprotein aequorin which after reconstitution with the cofactor coelenterazine emits light when the free calcium concentration in the inner mitochondrial compartment is increased (Rizzuto R. Simpson A W, Brini M, Pozzan T.; Nature 358 (1992) 325-327). The cell is additionally stably transfected with the human M2AChR (Peralta E G, Ashkenazi A, Winslow J W, Smith D H, Ramachandran J, Capon, D J, EMBO Journal 6 (1987) 3923-3929) and with the gene which codes for the promiscuous Gα16 protein (Amatruda T T, Steele D A, Slepak V Z, Simon M I, Proceedings in the National Academy of Science USA 88 (1991), 5587-5591). The resulting M2AChR test cell responds to stimulation of the recombinant M2ACh receptor with an intracellular release of calcium ions, which can be quantified through the resulting aequorin luminescence with a suitable luminometer (Milligan G, Marshall F, Rees S, Trends in Pharmacological Sciences 17 (1996) 235-237).
Test procedure: The cells are plated out on the day before the test in culture medium (DMEM, 10% FCS, 2 mM glutamine, 10 mM HEPES; Gibco Cat.#21331-020; now belongs to: Invitrogen GmbH, 76131 Karlsruhe) in 384 (or 1536) well microtiter plates and kept in a cell incubator (96% humidity, 5% v/v CO2, 37° C.). On the day of the test, the culture medium is replaced by a Tyrode solution (in mM: 140 NaCl, 5 KCl, 1 MgCl2, 2 CaCl2, 20 glucose, 20 HEPES) which additionally contains the cofactor coelenterazine (50 μM), and the microtiter plate is then incubated for a further 3-4 hours. Immediately after the test substances have been transferred into the wells of the microtiter plate, the resulting light signal is measured in the luminometer.
By EC50 is commonly meant the concentration needed to bring the measured effect to its halfway point. Take “4-N-[(1-S-Methyl-(2-methylbutyl)glycyl]-1-cyclopropyl-2-oxo-N-[1-S-(4-pyridinyl)-ethyl]-1,2,3,4-tetrahydro-6-quinoxalinecarboxamide [Example 25]”: the EC50 came to 6 nM.
The value for `C[C@H](NC(=O)c1ccc2c(c1)N(C(=O)CN[C@@H](C)C(C)(C)C)CC(=O)N2C1CC1)c1ccncc1` [Example 24] was 32 nM.
Next, `C[C@H](NC(=O)c1ccc2c(c1)N(C(=O)CNCC(C)(C)C)CC(=O)N2C1CC1)c1ccncc1` [Example 23]: 18 nM; `CC(NC(=O)c1ccc2c(c1)N(C(=O)CNC1CCC1)CC(=O)N2C1CC1)c1cccnc1` (stereo not shown) [Example 2, 4-(N-Cyclobutylglycyl)-1-cyclopropyl-2-oxo-N-[1-(3-pyridinyl)ethyl]-1,2,3,4-tetra-hydro-6-quinoxalinecarboxamide]: 1000 nM.
Regarding “4-N-[(1-S-Methyl-(2-methylbutyl)glycyl]-1-cyclopropyl-2-oxo-N-[(3-pyridinyl-4-methoxy)ethyl]-1,2,3,4-tetrahydro-6-quinoxalinecarboxamide [Example 26]”, the EC50 was 16 nM.
Regarding `CC(NC(=O)c1ccc2c(c1)N(C(=O)CNC1CCCCC1)CC(=O)N2C1CC1)c1ccncc1` (single isomer, unassigned; (+)) [Example 7, (+)-4-(N-Cyclohexylglycyl)-1-cyclopropyl-2-oxo-N-[1-(4-pyridinyl)ethyl]-1,2,3,4-tetrahydro-6-quinoxalinecarboxamide], the EC50 turned out to be 5 nM.
With `CC1CCCC(NCC(=O)N2CC(=O)N(C3CC3)c3ccc(C(=O)NC(C)c4cccnc4)cc32)C1` (stereo not shown) [Example 11, 1-Cyclopropyl-4-[N-(3-methylcyclohexyl)glycyl]-2-oxo-N-[1-(3-pyridinyl)ethyl]-1,2,3,4-tetrahydro-6-quinoxalinecarboxamide], the EC50 was 320 nM.
The value for `C[C@H](NC(=O)c1ccc2c(c1)N(C(=O)CN[C@H]1CC[C@H](O)CC1)CC(=O)N2C1CC1)c1ccncc1` [Example 22, 4-N-[(trans-4-Cyclohexanoyl)glycyl]-1-cyclopropyl-2-oxo-N-[1-S-(4-pyridinyl)-ethyl]-1,2,3,4-tetrahydro-6-quinoxalinecarboxamide] was 150 nM; that for `O=C(NCc1ccsc1)c1ccc2c(c1)N(C(=O)CNC1CCCCC1)CC(=O)N2C1CC1` [Example 12, 4-(N-Cyclohexylglycyl)-1-cyclopropyl-2-oxo-N-(3-thienylmethyl)-1,2,3,4-tetrahydro-6-quinoxalinecarboxamide] was 1800 nM; that for `CC(NC(=O)c1ccc2c(c1)N(C(=O)CNC1CCCCC1)CC(=O)N2C1CC1)c1cccnc1` (stereo not shown) [Example 5, 4-(N-Cyclohexylglycyl)-1-cyclopropyl-2-oxo-N-[1-(3-pyridinyl)ethyl]-1,2,3,4-tetrahydro-6-quinoxalinecarboxamide] was 37 nM.
